Literature values as cited in patent US20040087484A1, “Combination of organic compounds” (priority 2003, published 2004).

System: male rats
Settings: used for the treatment of hypertensive disorder in male rats

In the case of `CCCCc1nc(Cl)c(CO)n1Cc1ccc(-c2ccccc2-c2nn[nH]n2)cc1` [losartan], the “preservation of sexual function” value is listed as “advantage in preservation of sexual function”.
